# Assay results published in US20170042991A1, “COMPOSITIONS COMPRISING GLUTEN PEPTIDES AND USES THEREOF” (ImmusanT, Inc., priority 2014, published 2017).
# Non-standard residues stand in square brackets, D forms with d. pGlu = O=C1CC[C@@H](C(=O)O)N1
# Legend:
# Format in all cases: cell-based, human
# PBMC [1] = assay: IFN-gamma ELISpot of PBMC, Day-6 after gluten challenge (Example 1); details: DQ2.5+ CD
# whole blood [2] = assay: 96-well plate whole blood multiplex cytokine release, IP-10 (MAGPIX bead assay, Example 2); details: for IP-10 WB MAGPIX % max Mean: Day-6, n = 10; for Percent of maximal response, IP-10: after oral gluten challenge
# PBMC [3] = assay: Overnight IFNγ ELISpot assay with fresh PBMC (Example 2); details: Day-6, n = 5
# Method: Ten HLA-DQ2.5+ adults with celiac disease diagnosed according to the National Institutes of Health Consensus Statement 2004 were enrolled (Table 7).^22 Subjects were required to have followed gluten-free diet for at least one year and without known gluten exposures within the previous two-months. […] Full inclusion and exclusion criteria are described in Table 8. Each of 3 consecutive days subjects consumed 3 cookies that were prepared from approximately 4.5 g wheat gluten, 3 g barley flour protein, and 1.5 g rye flour protein. Blood was collected before and six days after commencing the oral challenge. Blood was collected using a 21G butterfly needle directly into 10 mL lithium heparin tubes (BD Vacutainer® Heparin tube #367880) and QuantiFERON® NIL (0591-0205, Cellestis Ltd., Chadstone VIC 3148 Australia) and QuantiFERON® MITOGEN (0593-0201, Cellestis Ltd.).
# Overnight IFNγ ELISpot assays (Human IFN-γ ELISpotPRO kit, transparent, ALP; Mabtech AB, #3420-2APT-10) were performed using PBMC freshly separated from heparinized blood diluted 1:1 in PBS with 2% fetal bovine serum (Stemcell Technologies #07905; Vancouver, BC, V5Z 1B3, Canada) overlaid on density gradient medium (Ficoll-Paque™ PLUS; GE Healthcare Lice Sciences #:17-1440-02) in SepMate™-50 tubes (Stemcell Technologies #15460). PBMC (8 million/mL) were resuspended in serum-free medium with gentamicin and phenol red (X-VIVO™15; Lonza, Walkersville Mass. 21793). PBMC (0.4 million/50 μL/well) and incubated with 50 μL 80% X-vivol5, 0.2% DMSO and 20% PBS in three triplicate wells (“medium only”), or with 50 μL PHA-L 20 μg/ml or peptide at 2× final concentration in 80% X-vivol5, 0.2% DMSO and 20% PBS. Peptide solutions to be added to individual ELISpot wells were prepared in 96-well U-bottom plates (60 μL/well) that were then sealed with adhesive ELISA plate cover slips before replacing the plastic lid and being frozen at −80° C. 96-well plates containing peptide solutions were thawed at room temperature for 10 min while being centrifuged at 300 g immediately prior to being added to ELISpot wells. Peptide pools and mitogen were assessed in triplicate wells, and individual peptides were assessed in duplicate wells. X-VIVO™15 (50 μL) was incubated with 80% X-vivol5, 0.2% DMSO and 20% PBS (50 μL) in triplicate wells (“no PBMC” control). A Zeiss automated ELISpot counter was used to determine spot forming units (SFU) per well (Zellnet Inc., Fort Lee, N.J. 07024). Laboratory staff were unaware of the arrangement of peptide solutions in ELISpot wells during assay setup and plate counting.
# whole blood [4] = assay: 96-well plate whole blood multiplex cytokine release, IFNγ (MAGPIX bead assay, Example 2); details: Day-6, n = 8
# gluten-reactive T cells = assay: Cytokine release assays taken together (IFNγ ELISpot, whole blood IFNγ and IP-10 release); details: three cytokine release assays
# Method: Gluten peptide solutions for addition to whole blood were arranged according to standardized templates in sterile 96-well U-bottom plates (30 μL/well). Plates were sealed with adhesive ELISA plate cover slips before the plastic lid was replaced and being frozen at −80° C. Whole blood assay (WBA) “medium” (1% DMSO in 90% PBS and 9% normal saline), mitogen (PHA-L, Sigma-Aldrich #L2769; St Louis Mo.) 100 μg/ml in WBA medium, and CEF diluted to 10 μg/ml in PBS with a final concentration of 1% DMSO were frozen separately in sterile cryovials. 96-well plates and cryovials with frozen incubation solutions were shipped on dry ice to the clinical site where blood was collected and incubations performed. Solutions were thawed at room temperature for 10 min just before being added to whole blood. 96-well plates were thawed while being centrifuged at 300 g to avoid surface condensation. A multi-channel pipette was used to efficiently transfer 25 μL of peptide solutions from the original 96-well plate to corresponding wells in a fresh sterile 96-well U-bottom plate. Once incubation solutions had been added, 225 μL of whole blood was added to each well and the plate transferred to incubate for 24 h at 37° C. 5% CO2. […] Individual peptides were incubated at a final assay concentration of 5 μM. Final concentrations of individual peptides assessed in P3 was 0.05-50 μg/mL, and in P14 and P13 pools 0.025-25 μM. The P71 pool was tested at between 0.005-10 μg/mL, the highest tested concentration being the maximal possible not exceeding 0.1% DMSO. Peptide pools, mitogen, and medium only were assessed in triplicate wells, and on Day-6 individual peptides were assessed in duplicate wells. Incubations were terminated after 24 h, and 96-well plates centrifuged at 300 g for 10 min. A total of approximately 90 to 120 μL of plasma was removed from each well taking care to avoid red cell contamination, and transferred into corresponding wells of two further 96-well plates (one with 30 μL/well and the residual in the second plate). Plasmas were frozen at −80° C. and later shipped on dry ice to the central lab where IP-10 and IFNγ multiplex bead assays were performed according to manufacturer's instructions using 25 μL plasma per well (Milliplex® MAP Human Cytokine/Chemokine Magnetic Bead Panel #HCYTOMAG-60k-02; EMD Millipore Corp., Billerica, Mass. 01821) and analysed with the Luminex® MAGPIX® System xPONENT® software (Luminex Corporation, Austin Tex. 78727). Plasma cytokine levels for each assay condition were expressed as the mean analyte concentration of each of the three replicate incubations. Laboratory staff were unaware of the arrangement of peptide solutions incubated with during assay setup and plate counting. […]
# [5] = Peptide 2 re-synthesised by Pepscan, 10 μg/mL (5.45 μM)
# [6] = individual peptides 5 μM, Peptide 2 = CSBio batch
substance,measurement,setting,value
"(pE)QPFPQPEQPFPWQP-amide ([pGlu]QPFPQPEQPFPWQP-NH2; SMILES NC(=O)CC[C@H](NC(=O)[C@H](Cc1c[nH]c2ccccc12)NC(=O)[C@@H]1CCCN1C(=O)[C@H](Cc1ccccc1)NC(=O)[C@@H]1CCCN1C(=O)[C@H](CCC(N)=O)NC(=O)[C@H](CCC(=O)O)NC(=O)[C@@H]1CCCN1C(=O)[C@H](CCC(N)=O)NC(=O)[C@@H]1CCCN1C(=O)[C@H](Cc1ccccc1)NC(=O)[C@@H]1CCCN1C(=O)[C@H](CCC(N)=O)NC(=O)[C@@H]1CCC(=O)N1)C(=O)N1CCC[C@H]1C(N)=O) [Peptide 2, CSBio and Pepscan batches tested separately]",Peptide-specific IFN-gamma ELISpot response,"PBMC [1]; Subject 1, 10 ug/ml",0 spot forming units per 0.8 million PBMC
same,Peptide-specific IFN-gamma ELISpot response,"PBMC [1]; Subject 2, 10 ug/ml",1 spot forming units per 0.8 million PBMC
same,Peptide-specific IFN-gamma ELISpot response,"PBMC [1]; Subject 3, 10 ug/ml",2 spot forming units per 0.8 million PBMC
same,Peptide-specific IFN-gamma ELISpot response,"PBMC [1]; Subject 4, 10 ug/ml",17 spot forming units per 0.8 million PBMC
same,Peptide-specific IFN-gamma ELISpot response,"PBMC [1]; Subject 5, 10 ug/ml",0 spot forming units per 0.8 million PBMC
same,Peptide-specific IFN-gamma ELISpot response,"PBMC [1]; Subject 6, 10 ug/ml",2 spot forming units per 0.8 million PBMC
same,Peptide-specific IFN-gamma ELISpot response,"PBMC [1]; Subject 7, 10 ug/ml",2 spot forming units per 0.8 million PBMC
same,Peptide-specific IFN-gamma ELISpot response,"PBMC [1]; Subject 8, 10 ug/ml",4 spot forming units per 0.8 million PBMC
same,Peptide-specific IFN-gamma ELISpot response,"PBMC [1]; Subject 9, 10 ug/ml",1 spot forming units per 0.8 million PBMC
same,Peptide-specific IFN-gamma ELISpot response,"PBMC [1]; Subject 10, 10 ug/ml",0 spot forming units per 0.8 million PBMC
same,IP-10 WB MAGPIX % max Mean,whole blood [2]; [5],49 % max
same,"Percent of maximal response, IP-10","whole blood [2]; Subject 3, Max. 9492 pg/mL",≥ 100 % of max
same,"Percent of maximal response, IP-10","whole blood [2]; Subject 4, Max. 9463 pg/mL",≥ 100 % of max
same,IP-10 WB MAGPIX % max Mean,whole blood [2]; [6],43 % max
same,IFNγ ELISpot % max Mean,PBMC [3]; [5],25 % max
same,IFNγ ELISpot % max Mean,PBMC [3]; [6],19 % max
same,IFNγ WB MAGPIX % max Mean,whole blood [4]; [5],27 % max
same,IFNγ WB MAGPIX % max Mean,whole blood [4]; [6],23 % max
same,activity as a fraction of that of Peptide 14,gluten-reactive T cells,one-half to one-fifth
